# Assay results published in PubChem BioAssay (NCI).
#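 48-hour exposure; five concentrations; linearly interpolated endpoints. Here, GI50 denotes the concentration required for 50% inhibition of growth. The concentration for full growth arrest is given as TGI.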
# What was measured:
# Test in all cases: DTP human tumour cell line panel, 48 h
# HOP-62 NSCLC = tested on: HOP-62 NSCLC
# ACHN renal = tested on: ACHN renal
# MDA-MB-231 breast = tested on: MDA-MB-231 breast
# HCT-15 colon = tested on: HCT-15 colon
# DU-145 prostate = tested on: DU-145 prostate
# SN12C renal = tested on: SN12C renal
# NCI-H23 lung = tested on: NCI-H23 lung
# TK-10 renal = tested on: TK-10 renal
# SK-MEL-5 melanoma = tested on: SK-MEL-5 melanoma
# RXF 393 renal = tested on: RXF 393 renal
# MOLT-4 leukemia = tested on: MOLT-4 leukemia
# NCI-H522 lung = tested on: NCI-H522 lung
# SNB-19 CNS = tested on: SNB-19 CNS
# OVCAR-4 ovarian = tested on: OVCAR-4 ovarian
# OVCAR-8 ovarian = tested on: OVCAR-8 ovarian
# LOX IMVI melanoma = tested on: LOX IMVI melanoma
# HL-60(TB) leukemia = tested on: HL-60(TB) leukemia
# SK-MEL-2 melanoma = tested on: SK-MEL-2 melanoma
# OVCAR-5 ovarian = tested on: OVCAR-5 ovarian
# A498 renal = tested on: A498 renal
# SK-OV-3 ovarian = tested on: SK-OV-3 ovarian
# SK-MEL-28 melanoma = tested on: SK-MEL-28 melanoma
# MDA-MB-435 = tested on: MDA-MB-435
# MALME-3M melanoma = tested on: MALME-3M melanoma
# 786-0 renal = tested on: 786-0 renal
# PC-3 prostate = tested on: PC-3 prostate
# T-47D breast = tested on: T-47D breast
# BT-549 breast = tested on: BT-549 breast
# SF-539 CNS = tested on: SF-539 CNS
# SF-295 CNS = tested on: SF-295 CNS
# CAKI-1 renal = tested on: CAKI-1 renal
# SW-620 colon = tested on: SW-620 colon
# CCRF-CEM leukemia = tested on: CCRF-CEM leukemia
# SNB-75 CNS = tested on: SNB-75 CNS
# M14 melanoma = tested on: M14 melanoma
# HCT-116 colon = tested on: HCT-116 colon
# IGROV1 ovarian = tested on: IGROV1 ovarian
# UACC-62 melanoma = tested on: UACC-62 melanoma
# EKVX NSCLC = tested on: EKVX NSCLC
# A549 NSCLC = tested on: A549 NSCLC
# SF-268 CNS = tested on: SF-268 CNS
# NCI/ADR-RES ovarian = tested on: NCI/ADR-RES ovarian
# HS 578T breast = tested on: HS 578T breast
# COLO 205 colon = tested on: COLO 205 colon
# U251 CNS = tested on: U251 CNS
# NCI-H226 lung = tested on: NCI-H226 lung
# UACC-257 melanoma = tested on: UACC-257 melanoma
# KM12 colon = tested on: KM12 colon
# UO-31 renal = tested on: UO-31 renal
# SR leukemia = tested on: SR leukemia
# HCC-2998 colon = tested on: HCC-2998 colon
# HOP-92 NSCLC = tested on: HOP-92 NSCLC
# HT29 colon = tested on: HT29 colon
# OVCAR-3 ovarian = tested on: OVCAR-3 ovarian
# RPMI-8226 leukemia = tested on: RPMI-8226 leukemia
# NCI-H460 lung = tested on: NCI-H460 lung
# MCF7 breast = tested on: MCF7 breast
# K-562 leukemia = tested on: K-562 leukemia
smiles,measurement,setting,value
C=CCCC(=O)N1CCC(C(=O)OCC)C1=O (stereo not drawn),TGI,HOP-62 NSCLC,> 100 µM
same,TGI,ACHN renal,> 100 µM
same,TGI,MDA-MB-231 breast,> 100 µM
same,TGI,HCT-15 colon,> 100 µM
same,TGI,DU-145 prostate,> 100 µM
same,TGI,SN12C renal,> 100 µM
same,TGI,NCI-H23 lung,> 100 µM
same,TGI,TK-10 renal,> 100 µM
same,TGI,SK-MEL-5 melanoma,> 100 µM
same,TGI,RXF 393 renal,> 100 µM
same,TGI,MOLT-4 leukemia,> 100 µM
same,TGI,NCI-H522 lung,> 100 µM
same,TGI,SNB-19 CNS,> 100 µM
same,TGI,OVCAR-4 ovarian,> 100 µM
same,TGI,OVCAR-8 ovarian,> 100 µM
same,TGI,LOX IMVI melanoma,> 100 µM
same,TGI,HL-60(TB) leukemia,> 100 µM
same,TGI,SK-MEL-2 melanoma,> 100 µM
same,TGI,OVCAR-5 ovarian,> 100 µM
same,TGI,A498 renal,> 100 µM
same,TGI,SK-OV-3 ovarian,> 100 µM
same,TGI,SK-MEL-28 melanoma,> 100 µM
same,TGI,MDA-MB-435,> 100 µM
same,TGI,MALME-3M melanoma,> 100 µM
same,TGI,786-0 renal,> 100 µM
same,TGI,PC-3 prostate,> 100 µM
same,TGI,T-47D breast,> 100 µM
same,TGI,BT-549 breast,> 100 µM
same,TGI,SF-539 CNS,> 100 µM
same,TGI,SF-295 CNS,> 100 µM
same,TGI,CAKI-1 renal,> 100 µM
same,TGI,SW-620 colon,> 100 µM
same,TGI,CCRF-CEM leukemia,> 100 µM
same,TGI,SNB-75 CNS,> 100 µM
same,TGI,M14 melanoma,> 100 µM
same,TGI,HCT-116 colon,> 100 µM
same,TGI,IGROV1 ovarian,> 100 µM
same,TGI,UACC-62 melanoma,> 100 µM
same,TGI,EKVX NSCLC,> 100 µM
same,TGI,A549 NSCLC,> 100 µM
same,TGI,SF-268 CNS,> 100 µM
same,TGI,NCI/ADR-RES ovarian,> 100 µM
same,TGI,HS 578T breast,> 100 µM
same,TGI,COLO 205 colon,> 100 µM
same,TGI,U251 CNS,> 100 µM
same,TGI,NCI-H226 lung,> 100 µM
same,TGI,UACC-257 melanoma,> 100 µM
same,TGI,KM12 colon,> 100 µM
same,TGI,UO-31 renal,> 100 µM
CCC(/C=C(C)/C=C/C(=O)c1c(O)c(-c2ccc(O)cc2)c[nH]c1=O)CO (stereo not drawn),GI50,HOP-62 NSCLC,14.2 µM
same,TGI,HOP-62 NSCLC,37.2 µM
same,GI50,ACHN renal,11.9 µM
same,TGI,ACHN renal,37.9 µM
same,GI50,MDA-MB-231 breast,9.17 µM
same,TGI,MDA-MB-231 breast,29.5 µM
same,GI50,HCT-15 colon,8.13 µM
same,TGI,HCT-15 colon,22.1 µM
same,GI50,DU-145 prostate,2.83 µM
same,TGI,DU-145 prostate,12.5 µM
same,GI50,SN12C renal,11.8 µM
same,TGI,SN12C renal,41.9 µM
same,GI50,NCI-H23 lung,9.55 µM
same,TGI,NCI-H23 lung,24.1 µM
same,GI50,SR leukemia,2.43 µM
same,TGI,SR leukemia,13.2 µM
same,GI50,TK-10 renal,20.4 µM
same,TGI,TK-10 renal,80.8 µM
same,GI50,SK-MEL-5 melanoma,11.2 µM
same,TGI,SK-MEL-5 melanoma,24.3 µM
same,GI50,RXF 393 renal,5.82 µM
same,TGI,RXF 393 renal,22.2 µM
same,GI50,MOLT-4 leukemia,5.84 µM
same,TGI,MOLT-4 leukemia,44.2 µM
same,GI50,NCI-H522 lung,5.56 µM
same,TGI,NCI-H522 lung,21 µM
same,GI50,SNB-19 CNS,11.9 µM
same,TGI,SNB-19 CNS,27.4 µM
same,GI50,HCC-2998 colon,13 µM
same,TGI,HCC-2998 colon,25.6 µM
same,GI50,OVCAR-4 ovarian,12 µM
same,TGI,OVCAR-4 ovarian,> 100 µM
same,GI50,HOP-92 NSCLC,8.55 µM
same,TGI,HOP-92 NSCLC,82.6 µM
same,GI50,HT29 colon,13.9 µM
same,TGI,HT29 colon,29.2 µM
same,GI50,OVCAR-8 ovarian,8.34 µM
same,TGI,OVCAR-8 ovarian,> 100 µM
same,GI50,LOX IMVI melanoma,9.87 µM
same,TGI,LOX IMVI melanoma,21.5 µM
same,GI50,OVCAR-3 ovarian,3.8 µM
same,TGI,OVCAR-3 ovarian,16.1 µM
same,GI50,HL-60(TB) leukemia,2.83 µM
same,TGI,HL-60(TB) leukemia,17.4 µM
same,GI50,SK-MEL-2 melanoma,16 µM
same,TGI,SK-MEL-2 melanoma,52.2 µM
same,GI50,RPMI-8226 leukemia,6.89 µM
same,TGI,RPMI-8226 leukemia,32.3 µM
same,GI50,OVCAR-5 ovarian,13 µM
same,TGI,OVCAR-5 ovarian,27.1 µM
same,GI50,A498 renal,3.69 µM
same,TGI,A498 renal,18.8 µM
same,GI50,SK-OV-3 ovarian,23.4 µM
same,TGI,SK-OV-3 ovarian,99.5 µM
same,GI50,SK-MEL-28 melanoma,11.8 µM
same,TGI,SK-MEL-28 melanoma,24.6 µM
same,GI50,MDA-MB-435,4.34 µM
same,TGI,MDA-MB-435,31.9 µM
same,GI50,MALME-3M melanoma,10.3 µM
same,TGI,MALME-3M melanoma,26.4 µM
same,GI50,786-0 renal,8.1 µM
same,TGI,786-0 renal,20.6 µM
same,GI50,PC-3 prostate,14.3 µM
same,TGI,PC-3 prostate,82.1 µM
same,GI50,T-47D breast,10.6 µM
same,TGI,T-47D breast,54.2 µM
same,GI50,SF-539 CNS,3.22 µM
same,TGI,SF-539 CNS,26 µM
same,GI50,NCI-H460 lung,6.15 µM
same,TGI,NCI-H460 lung,21.9 µM
same,GI50,SF-295 CNS,10.1 µM
same,TGI,SF-295 CNS,30.9 µM
same,GI50,CAKI-1 renal,10.5 µM
same,TGI,CAKI-1 renal,47.5 µM
same,GI50,SW-620 colon,10.7 µM
same,TGI,SW-620 colon,26.9 µM
same,GI50,CCRF-CEM leukemia,3.53 µM
same,TGI,CCRF-CEM leukemia,26.7 µM
same,GI50,SNB-75 CNS,6.11 µM
same,TGI,SNB-75 CNS,24.5 µM
same,GI50,M14 melanoma,12.9 µM
same,TGI,M14 melanoma,26.7 µM
same,GI50,HCT-116 colon,6.61 µM
same,TGI,HCT-116 colon,19.2 µM
same,GI50,IGROV1 ovarian,6.11 µM
same,TGI,IGROV1 ovarian,42.1 µM
same,GI50,UACC-62 melanoma,10.2 µM
same,TGI,UACC-62 melanoma,23.3 µM
same,GI50,EKVX NSCLC,15.4 µM
same,TGI,EKVX NSCLC,68 µM
same,GI50,MCF7 breast,4.35 µM
same,TGI,MCF7 breast,18.9 µM
same,GI50,A549 NSCLC,20.7 µM
same,TGI,A549 NSCLC,93.8 µM
same,GI50,SF-268 CNS,6.8 µM
same,TGI,SF-268 CNS,21.1 µM
same,GI50,NCI/ADR-RES ovarian,21.6 µM
same,TGI,NCI/ADR-RES ovarian,> 100 µM
same,GI50,K-562 leukemia,4.11 µM
same,TGI,K-562 leukemia,37.4 µM
same,GI50,HS 578T breast,2.78 µM
same,TGI,HS 578T breast,36.1 µM
same,GI50,COLO 205 colon,15.5 µM
same,TGI,COLO 205 colon,28.8 µM
same,GI50,U251 CNS,6.91 µM
same,TGI,U251 CNS,23.9 µM
same,GI50,NCI-H226 lung,18 µM
same,TGI,NCI-H226 lung,> 100 µM
same,GI50,UACC-257 melanoma,11.3 µM
same,TGI,UACC-257 melanoma,25 µM
same,GI50,KM12 colon,4.2 µM
same,TGI,KM12 colon,16.1 µM
same,GI50,UO-31 renal,6.74 µM
same,TGI,UO-31 renal,28.7 µM
